Earlier results in patent publication US11260055B2, “Oral pharmaceutical composition of lurasidone and preparation thereof” (PIRAMAL PHARMA LIMITED, priority 2017, dated 2022).

Settings: in water

Solubility: poor water solubility
SMILES: O=C1[C@@H]2[C@H]3CC[C@H](C3)[C@@H]2C(=O)N1C[C@@H]1CCCC[C@H]1CN1CCN(c2nsc3ccccc23)CC1 [Lurasidone]
